Reference: publication PMC3508718 (Clinical pharmacokinetics, 2012)
Like-named read-outs stand apart in the source and are kept apart here.

Assays:
wild-type HIV virus = details: cited from earlier work
[1] = non-compartmental analysis; ref [13]; cited from earlier work
[2] = Population pharmacokinetic co-modelling of blood plasma; details: female, human
[3] = female, human, in vivo
[4] = Model-predicted AUCτ in BP and CVF and CVF:BP AUC ratios; format: in vivo, HIV-infected pre-menopausal women
[5] = cited from earlier work
[6] = female, human, in vivo, CVF AUCτ:BP AUCτ ratio
[7] = female, human, in vivo, CVF AUCτ:BP fAUCτ ratio
[8] = first dose, median (25th, 75th percentiles), model-predicted
[9] = multiple dose, median (25th, 75th percentiles), model-predicted

COC(=O)N[C@H](C(=O)N[C@@H](Cc1ccccc1)[C@@H](O)CN(Cc1ccc(-c2ccccn2)cc1)NC(=O)[C@@H](NC(=O)OC)C(C)(C)C)C(C)(C)C [Atazanavir, atazanavir]
IC50 (concentration producing 50 % inhibition of wild-type HIV virus) (wild-type HIV virus; ref [15]): 11 ng/mL | penetration / exposure in CVF relative to BP (in words) [1]: moderately penetrative | Vd ([2]; in vivo): 10.4 L | ka,FD (first-order absorption rate constant, first dose) [3]: 0.879 (79.5) [29.0] h^−1 | tauFD (transit compartment transfer rate constant BP to CVF, first dose) [3]: 0.773 (145) [52.8] h^−1 | tauMD (transit compartment transfer rate constant BP to CVF, multiple dose) [3]: 1.41 (216) [85.2] h^−1 | AUC ([4]; female, human, in vivo, BP AUCτ, first dose, median (25th, 75th percentiles), model-predicted): 25.3 ng·h/mL | AUC ([4]; female, human, in vivo, BP AUCτ, multiple dose, median (25th, 75th percentiles), model-predicted): 54.6 ng·h/mL | AUC ([4]; female, human, in vivo, CVF AUCτ, first dose, median (25th, 75th percentiles), model-predicted): 5.66 ng·h/mL | AUC ([4]; female, human, in vivo, CVF AUCτ, multiple dose, median (25th, 75th percentiles), model-predicted): 5.53 ng·h/mL | Kp [4, 6]: 0.299 | Kp [4, 7]: 2.14 | BP fAUCτ (unbound) [4, 8]: 3.55 (0.867, 6.15) μg•h/L | BP fAUCτ (unbound) [4, 9]: 7.64 (1.61, 9.54) μg•h/L

O=C1Nc2ccc(Cl)cc2[C@@](C#CC2CC2)(C(F)(F)F)O1 [Efavirenz, efavirenz]
estimated fu (protein-unbound fraction in blood) ([5]; used in the model to control drug transfer into CVF, ref [14]–[17]): 0.01 | IC50 (concentration producing 50 % inhibition of wild-type HIV virus) (wild-type HIV virus; ref [36]): 0.51 ng/mL | penetration / exposure in CVF relative to BP (in words) [1]: very low penetration into CVF | Vd ([2]; cervicovaginal fluid, oral): 2.55 L | ka,FD (first-order absorption rate constant, first dose) [3]: 1.75 (52.7) [18.9] h^−1 | ka,MD (first-order absorption rate constant, multiple dose) [3]: 0.945 (139) [54.0] h^−1 | tauFD (transit compartment transfer rate constant BP to CVF, first dose) [3]: 0.866 (208) [77.5] h^−1 | tauMD (transit compartment transfer rate constant BP to CVF, multiple dose) [3]: 0.383 (156) [55.8] h^−1 | AUC ([4]; female, human, CVF, oral, CVF AUCτ, multiple dose, median (25th, 75th percentiles), model-predicted): 0.262 ng·h/mL | AUC ([4]; female, human, cervicovaginal fluid, oral, CVF AUCτ, first dose, median (25th, 75th percentiles), model-predicted): 0.0127 ng·h/mL | CVF AUCτ:BP fAUCτ ratio ([4]; female, human, in vivo): 0.527 (0.298, 1.28) | Kp [4, 6]: 0.00527 | AUC ([4]; female, human, plasma, oral, BP AUCτ, first dose, median (25th, 75th percentiles), model-predicted): 24.5 ng·h/mL | AUC ([4]; female, human, plasma, oral, BP AUCτ, multiple dose, median (25th, 75th percentiles), model-predicted): 46.7 ng·h/mL | BP fAUCτ (unbound) [4, 8]: 0.245 (0.161, 0.303) μg•h/L | BP fAUCτ (unbound) [4, 9]: 0.470 (0.339, 1.06) μg•h/L

Nc1ccn([C@@H]2CS[C@H](CO)O2)c(=O)n1 [Lamivudine, lamivudine]
protein binding ([5]; ref [17]): 40% | CVF AUCτ ([4]; female, human, in vivo, 150 mg): 10.0 (6.07, 48.9) μg•h/L | AUC ([4]; female, human, in vivo, 150 mg, BP AUCτ): 3.86 ng·h/mL | AUC ([4]; female, human, in vivo, 300 mg, BP AUCτ): 10.1 ng·h/mL | AUC ([4]; female, human, in vivo, 300 mg, CVF AUCτ): 62.2 ng·h/mL

C[C@H](Cn1cnc2c(N)ncnc21)OCP(=O)(O)O [Tenofovir, tenofovir]
protein binding ([5]; ref [16]): < 7% | ka,FD (first-order absorption rate constant, first dose) [3]: 1.72 (61.1) [99.8] h^−1 | ka,MD (first-order absorption rate constant, multiple dose) [3]: 1.05 (69.8) [30.0] h^−1 | kg12 (transfer rate constant from CVF compartment 1 to 2) [3]: 0.525 (203) [63.6] h^−1 | kg21 (transfer rate constant from CVF compartment 2 to 1) [3]: 0.323 (97.6) [60.7] h^−1 | tauFD (transit compartment transfer rate constant BP to CVF, first dose) [3]: 1.53 (106) [71.1] h^−1 | tauMD (transit compartment transfer rate constant BP to CVF, multiple dose) [3]: 1.24 (103) [130] h^−1 | BP fAUCτ (unbound) ([4]; female, human, in vivo): 2.38 (1.59, 4.35) μg•h/L | AUC ([4]; female, human, in vivo, BP AUCτ): 2.56 ng·h/mL | AUC ([4]; female, human, in vivo, CVF AUCτ): 4.18 ng·h/mL | Kp [4, 6]: 1.57 | Kp [4, 7]: 1.68
